Assay results as given in patent US12454678B2, “Muscle differentiation-promoting actions of ergothioneine, ascorbic acid 2-glucoside, ascorbic acid, and combination thereof” (NAGASE & CO., LTD., priority 2018, dated 2025).

Legend:
Type in all cases: cell-based
[1] = system: MyH2 mRNA expression in C2C12 cells; experiment: MyH2 mRNA expression level of C2C12 cells (real time PCR, corrected by PPIA); conditions: for MyH2 mRNA expression: procedure of Example 3, vs NT
Method: (§1) C2C12 cells were suspended in a growth medium to adjust the cell density to 65×10^4 cells/ml. Then, 1.5 ml of the cell suspension was added to each well of a 6-well plate, and the cells were cultured in a 5% CO2 incubator for 24 hours. The growth medium was removed, and 2 ml of a differentiation medium containing 0.5 mM EGT was added. A control group (NT) was subjected to the exactly same operation except that EGT was not contained. The culture medium was removed after 2 days, 1 ml of TRIzol (Invitrogen Corporation) was added to each well, and RNA was collected according to the protocol of TRIzol. The collected RNA was converted into complementary strand DNA with a reverse transcription kit (Takara Bio Inc.). The following primer DNAs (MyH2 [NM_001039545]: forward 5′[…]3′ (SEQ ID NO: 5), reverse 5′[…]3′ (SEQ ID NO: 6), ACTA1 [NM_001272041]: forward 5′[…]3′ (SEQ ID NO: 7), PPIA [NM_008907]: forward 5′[…]3′ (SEQ ID NO: 3), and reverse 5′[…]3′ (SEQ ID NO: 4)) were added to the obtained complementary strand DNA, and the gene expression levels of MyH2, ACTA1, and PPIA were measured by subjecting the mixture to a CFX96 Touch™ real time PCR analysis system (Bio-Rad Laboratories, Inc.) using TB Green™ Premix Ex Tag™ II (Takara Bio Inc.) according to the protocol thereof. Correction was performed by dividing the amounts of expressed MyH2 and ACTA1 mRNA by the amount of expressed PPIA mRNA to calculate the myosin heavy chain 2 (MyH2) and a actin (ACTA1) mRNA expression levels. […] The MyH2 mRNA and ACTA1 mRNA expression levels increased by adding EGT.
C2C12 cells were suspended in a growth medium to adjust the cell density to 65×10^4 cells/ml. Then, 1.5 ml of the cell suspension was added to each well of a 6-well plate, and the cells were cultured in a 5% CO2 incubator for 24 hours. The growth medium was removed, and 2 ml of a differentiation medium containing 0.5 mM EGT, 25 μM edaravone (hereinafter, abbreviated to Edv), or 50 μM Edv was added to each well. Edv is a powerful synthetic antioxidant. The culture medium was exchanged for a new culture medium every other day, and the culture was continued. A control group (NT) was subjected to the exactly same operation except that EGT was not contained. The culture medium was removed after 4 days, 1 ml of TRIzol (Invitrogen Corporation) was added to each well, and RNA was collected according to the protocol of TRIzol. The complementary strand DNA of the mRNA was obtained by treating the collected RNA with a reverse transcription kit (Takara Bio Inc.). The following primer DNAs (MyH2 [NM_001039545]: forward 5′[…]3′ (SEQ ID NO: 5), reverse 5′[…]3′ (SEQ ID NO: 6), PPIA [NM_008907]: forward 5′[…]3′ (SEQ ID NO: 3), and reverse 5′[…]3′ (SEQ ID NO: 4)) were added to the obtained complementary strand DNA, and the gene expression levels of MyH2 and PPIA were measured by subjecting the mixture to a CFX96 Touch™ real time PCR analysis system (Bio-Rad Laboratories, Inc.) using TB Green™ Premix Ex Tag™ II Kit (Takara Bio Inc.) according to the protocol thereof. Correction was performed by dividing the amount of expressed MyH2 mRNA by the amount of expressed PPIA mRNA to calculate the MyH2 mRNA expression level.
The amounts of MyH2 and ACTA1 mRNA expression of C2C12 cells when the differentiation medium containing only EGT was used, when the differentiation medium containing EGT and AG was used, and when the differentiation medium containing only AG was used were investigated. AA2G(R) produced by Hayashibara Co., Ltd. was used as AG. […]

[2] = system: ACTA1 mRNA expression in C2C12 cells; experiment: ACTA1 mRNA expression level of C2C12 cells (real time PCR, corrected by PPIA); conditions: for ACTA1 mRNA expression: procedure of Example 3, vs NT
Method: as §1
The amounts of MyH2 and ACTA1 mRNA expression of C2C12 cells when the differentiation medium containing only EGT was used, when the differentiation medium containing EGT and AG was used, and when the differentiation medium containing only AG was used were investigated. AA2G(R) produced by Hayashibara Co., Ltd. was used as AG. The concentration of EGT in the differentiation medium was 0.5 mM, and the concentration of AG was 1.0 mM. The experiment procedure was the same as that of Example 3. […]

[3] = system: MyoD mRNA expression in C2C12 cells; experiment: MyoD mRNA expression level of C2C12 cells (real time PCR, corrected by PPIA); conditions: 0.1 mM or 0.5 mM EGT, after 2 days
Method: C2C12 cells were suspended in a growth medium to adjust the cell density to 65×10^4 cells/ml. Then, 1.5 ml of the cell suspension was added to each well of a 6-well plate, and the cells were cultured in a 5% CO2 incubator for 24 hours. The growth medium was removed, and 2 ml of a differentiation medium containing 0.1 mM or 0.5 mM EGT was then added to each well. A control group (hereinafter abbreviated to NT) was subjected to the exactly same operation except that EGT was not contained. The culture medium was removed after 2 days, 1 ml of TRIzol (Invitrogen Corporation) was added to each well, and the cells were dissolved. The cell solution was collected in an Eppendorf tube, and RNA was collected according to the protocol of TRIzol. The complementary strand DNA of the mRNA was obtained by treating the collected RNA with a reverse transcription kit (Takara Bio Inc.). The following primer DNAs (MyoD [NM_010866]: forward 5[…]3′ (SEQ ID NO: 1), reverse 5′[…]3′ (SEQ ID NO: 2), PPIA [NM_008907]: forward 5′[…]3′ (SEQ ID NO: 3), and reverse 5′[…]3′ (SEQ ID NO: 4)) were added to the obtained complementary strand DNA, and the gene expression levels of MyoD and PPIA were measured by subjecting the mixture to a CFX96 Touch™ real time PCR analysis system (Bio-Rad Laboratories, Inc.) using TB Green™ Premix Ex Taq™ II (Takara Bio Inc.) according to the protocol thereof. […]

C2C12 cells = experiment: Microscopic observation of muscle differentiation of C2C12 cells in differentiation medium; conditions: 0.5 mM EGT in differentiation medium, sixth day, vs control without EGT
Method: C2C12 cells were suspended in a 10% fetal calf serum-containing Dulbecco's modified Eagle's medium (hereinafter, called a growth medium) to adjust the cell density to 65×10^4 cells/ml. Then, 1.5 ml of the cell suspension was added to each well of a 6-well plate, and the cells were cultured in a 5% CO2 incubator for 24 hours. The growth medium was removed, and 2 ml of 2% horse serum-containing Dulbecco's modified Eagle's medium containing 0.5 mM EGT (hereinafter, called a differentiation medium) was then added to each well. The differentiation medium was exchanged for a new culture medium every other day, and the culture was continued. A control group was subjected to the exactly same operation except that EGT was not contained. The forms of the cells were observed and photographed through a microscope (NIKON CORPORATION: Eclipse Ts2) on the sixth day after exchange for the differentiation medium.

CC1=NN(c2ccccc2)C(=O)C1 [Edv, edaravone, reference compound] was tested, and the “MyH2 mRNA expression level (relative to NT = 1)” value ([1]; 25 μM or 50 μM Edv, after 4 days) was “did not affect” and the “MyH2 mRNA expression level (relative to NT = 1)” value ([1]; 25 μM or 50 μM Edv, after 4 days, listed as edaravone) was “does not influence”.
For O=C1O[C@H]([C@@H](O)CO)C(O)=C1O[C@H]1O[C@H](CO)[C@@H](O)[C@H](O)[C@H]1O [AG, ascorbic acid 2-glucoside], the “MyH2 mRNA expression” value ([1]; only AG, 1.0 mM) was “increased” and the “ACTA1 mRNA expression” value ([2]; only AG, 1.0 mM) was “increased”.
With O=C1O[C@H]([C@@H](O)CO)C(O)=C1O [VC, ascorbic acid] the “MyH2 mRNA expression” value ([1]; only VC, 0.5 mM) was “increased” and the “ACTA1 mRNA expression” value ([2]; only VC, 0.5 mM) was “increased”.
C[N+](C)(C)[C@@H](Cc1c[nH]c(=S)[nH]1)C(=O)[O-] [EGT, Ergothioneine] was tested, and the “MyoD mRNA expression level (relative to NT = 1)” value [3] was “increased depending on the concentration of EGT”, the “differentiation from C2C12 cells to muscle cells / myotube cell formation” value (C2C12 cells) was “more myotube cells were formed” and the “MyH2 mRNA expression level (relative to NT = 1)” value ([1]; 0.5 mM EGT, after 2 days) was “increased”. For the same compound, the “ACTA1 mRNA expression level (relative to NT = 1)” value ([2]; 0.5 mM EGT, after 2 days) was “increased”.
